In ChEMBL document CHEMBL1201862, “PubChem BioAssay data set” (2004):
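Following 48 hours of exposure in 96-well plates, responses at five concentrations were used to interpolate endpoints linearly. GI50 is the concentration that inhibits growth by half.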 The source made the active and inactive calls. Rule as the data show it: active = GI50 up to about 1.1 µM and inactive = higher.

Experiments:
Assay in all cases: NCI anticancer screen, dose series, 48 h
786-0 = test system: 786-0
A498 = test system: A498
A549 = test system: A549
ACHN = test system: ACHN
BT-549 = test system: BT-549
CAKI-1 = test system: CAKI-1
CCRF-CEM = test system: CCRF-CEM
COLO 205 = test system: COLO 205
DU-145 = test system: DU-145
EKVX = test system: EKVX
HCT-116 = test system: HCT-116
HCT-15 = test system: HCT-15
HL-60 = test system: HL-60
HOP-62 = test system: HOP-62
HOP-92 = test system: HOP-92
HT-29 = test system: HT-29
Hs-578T = test system: Hs-578T
IGROV-1 = test system: IGROV-1
K562 = test system: K562
KM12 = test system: KM12
LOX IMVI = test system: LOX IMVI
M14 = test system: M14
MCF7 = test system: MCF7
MDA-MB-231 = test system: MDA-MB-231
MDA-MB-435 = test system: MDA-MB-435
MDA-N = test system: MDA-N
MOLT-4 = test system: MOLT-4
Malme-3M = test system: Malme-3M
NCI-H226 = test system: NCI-H226
NCI-H23 = test system: NCI-H23
NCI-H460 = test system: NCI-H460
NCI-H522 = test system: NCI-H522
NCI/ADR-RES = test system: NCI/ADR-RES
OVCAR-3 = test system: OVCAR-3
OVCAR-4 = test system: OVCAR-4
OVCAR-5 = test system: OVCAR-5
OVCAR-8 = test system: OVCAR-8
PC-3 = test system: PC-3
RPMI-8226 = test system: RPMI-8226
RXF 393 = test system: RXF 393
SF-268 = test system: SF-268
SF-295 = test system: SF-295
SF-539 = test system: SF-539
SK-MEL-28 = test system: SK-MEL-28
SK-MEL-2 = test system: SK-MEL-2
SK-MEL-5 = test system: SK-MEL-5
SK-OV-3 = test system: SK-OV-3
SN12C = test system: SN12C
SNB-19 = test system: SNB-19
SNB-75 = test system: SNB-75
SR = test system: SR
SW-620 = test system: SW-620
T47D = test system: T47D
TK-10 = test system: TK-10
U-251 = test system: U-251
UACC-62 = test system: UACC-62
UO-31 = test system: UO-31

CN(C)CCSS(=O)(=O)O
GI50 (786-0): > 100 µM (inactive)
GI50 (A498): > 100 µM (inactive)
GI50 (A549): > 100 µM (inactive)
GI50 (ACHN): > 100 µM (inactive)
GI50 (BT-549): > 100 µM (inactive)
GI50 (CAKI-1): > 100 µM (inactive)
GI50 (CCRF-CEM): > 100 µM (inactive)
GI50 (COLO 205): > 100 µM (inactive)
GI50 (DU-145): > 100 µM (inactive)
GI50 (EKVX): > 100 µM (inactive)
GI50 (HCT-116): > 100 µM (inactive)
GI50 (HCT-15): > 100 µM
GI50 (HL-60): > 100 µM (inactive)
GI50 (HOP-62): 15.4 µM (inactive)
GI50 (HOP-92): > 100 µM (inactive)
GI50 (HT-29): > 100 µM (inactive)
GI50 (Hs-578T): > 100 µM (inactive)
GI50 (IGROV-1): > 100 µM (inactive)
GI50 (K562): > 100 µM (inactive)
GI50 (KM12): > 100 µM (inactive)
GI50 (LOX IMVI): 40.2 µM (inactive)
GI50 (M14): > 100 µM (inactive)
GI50 (MCF7): > 100 µM (inactive)
GI50 (MDA-MB-231): > 100 µM (inactive)
GI50 (MDA-MB-435): > 100 µM (inactive)
GI50 (MDA-N): > 100 µM (inactive)
GI50 (MOLT-4): > 100 µM (inactive)
GI50 (Malme-3M): > 100 µM (inactive)
GI50 (NCI-H226): > 100 µM (inactive)
GI50 (NCI-H23): > 100 µM (inactive)
GI50 (NCI-H460): 16 µM (inactive)
GI50 (NCI-H522): 83.9 µM (inactive)
GI50 (NCI/ADR-RES): > 100 µM (inactive)
GI50 (OVCAR-3): 9.16 µM (inactive)
GI50 (OVCAR-4): > 100 µM (inactive)
GI50 (OVCAR-5): > 100 µM (inactive)
GI50 (OVCAR-8): > 100 µM (inactive)
GI50 (PC-3): > 100 µM (inactive)
GI50 (RPMI-8226): > 100 µM (inactive)
GI50 (RXF 393): > 100 µM (inactive)
GI50 (SF-268): > 100 µM (inactive)
GI50 (SF-295): 13.3 µM (inactive)
GI50 (SF-539): > 100 µM (inactive)
GI50 (SK-MEL-28): > 100 µM (inactive)
GI50 (SK-MEL-2): > 100 µM (inactive)
GI50 (SK-MEL-5): > 100 µM (inactive)
GI50 (SK-OV-3): 29.4 µM (inactive)
GI50 (SN12C): > 100 µM (inactive)
GI50 (SNB-19): > 100 µM (inactive)
GI50 (SNB-75): < 10 nM (active)
GI50 (SR): > 100 µM (inactive)
GI50 (SW-620): > 100 µM (inactive)
GI50 (T47D): > 100 µM (inactive)
GI50 (TK-10): > 100 µM (inactive)
GI50 (U-251): 30.2 µM (inactive)
GI50 (UACC-62): > 100 µM (inactive)
GI50 (UO-31): > 100 µM (inactive)
